# Reference: patent US7964701B2, “Alpha-fetoprotein peptides” (Albany Medical College, priority 2006, dated 2011)
# “Also recorded” adds a separate entry of the source.
# How the values were obtained:
# [1] = system: E2-stimulated growth of mouse uterus; settings: Mesfin et al. / earlier studies; cited from earlier work
# [2] = system: E2-stimulated growth of mouse uterus; test: Immature mouse uterine growth assay; assay type: in vivo; settings: 1 μg/mouse intraperitoneally
# Source text: The anti-breast cancer activity of the linear and cyclic 8-mer and 9-mer AFP-derived peptides is well-documented using the immature mouse uterine growth assay and the human breast cancer xenograft assay; there is a strong correlation between the results of these two assays. To evaluate peptide-induced inhibition by the peptide of the present invention of estrogen-stimulated proliferation of normal tissue, the immature mouse uterine growth assay was utilized. Briefly, 13-15 day-old Swiss/Webster female mice, 6-8 g in body weight, were distributed into treatment groups of 5 mice per group so that each group contained animals of the same range of body weight. The peptide of the invention was injected i.p., s.c., or p.o. into the mice. One hour later, estradiol (E2) or vehicle control for E2 was injected i.p. Twenty-two hours after the second injection, uteri were harvested, trimmed free of mesenteries, and immediately weighed. The uterine weights were normalized to mouse body weights to compensate for differences in body weight among litters of the same age. Experiments employed a minimum of five mice per group and the mean normalized uterine weight±SE for each group was calculated. Percent growth inhibition in a test group was calculated from normalized uterine wet weights as described below.
# Differences between groups were evaluated, employing the nonparametric Wicoxon ranks sum test. In all cases, growth inhibitions that were greater than 25% were significant at P≦0.05.
# In other experiments, peptide analogs comprising the sequences TOVN SEQ ID NO.: 3) and TPVN (SEQ ID NO.: 2) were assessed for their ability to inhibit E2-stimulated growth of mouse uterus after intraperitoneal and oral administration.
# The ability to inhibit E2-stimulated growth of normal mouse uterus was used as a screening assay for biological activity of AFPep analogs. In general, inhibitory activity≧20% is considered to be biologically significant. Each analog's inhibitory effect on E2-stimulated growth was compared to AFPep (a positive control) and to PGVGQ (SEQ ID NO.: 44)(a negative control). PGVGQ (SEQ ID NO.: 44) (amino acids 478-482 of AFP) is a portion of the primary structure of AFP near to the anti-cancer active site of AFP and is comprised of amino acids (P, V, and G) that are important components of AFPep. A scrambled analog of AFPep was not used because some scrambled peptides retain low biological activity (data not shown). In Table 3, bold letters denote the sequences containing a putative Type I beta-turn, which was postulated to be necessary for antiestrogenic activity.
substance,measurement,setting,value
"MTPVNPG [7-mer peptide earlier reported by Mesfin et al, reference compound]",antiestrogenic activity reported in earlier studies,[1],substantially reduced antiestrogenic properties; also recorded: little antiestrogenic activity
same,"Inhibition ± S.E, % Immature mouse uterine growth Intraperitoneal",[2],18 ± 1%
same,"antiestrogenic activity (inhibition of E2-stimulated uterine growth), in words",[2]; Table 3 discussion,significantly less activity
